Results taken from patent US7659308B2, “Concentricolide and its derivatives, process for preparing them, pharmaceutical composition comprising the same and its use” (Kunming Institute of Botany, The Chinese Academy of Sciences, priority 2003, dated 2010).
Converted amounts (≈) assume the structure as drawn. Blank lines part the entries; values can stand above or below the compound they belong to.

How the values were obtained:
Format in all cases: cell-based
[1] = Cytotoxicity on C8166 cells (MTT colorimetric assay); settings: human, read-out: CC50 (50% cytotoxic concentration)
Method: (§1) C8166 was one of the host cells for HIV-1. 100 μl of 4×10^5/ml cells were seeded on microtiter plate, 100 μl of various concentrations of concentricolide were added and incubated at 37° C. in a humidified atmosphere of 5% CO2 for 72 h. The cellular toxicity was assessed by MTT calorimetric assay. The plates were read on Bio-Tek ELx 800 ELISA reader at 595/630 nm (OD595/630 nm). 50% cytotoxic concentration (CC50) was calculated as follows: Cell viability %=(ODexp−ODblank)/(ODcontrol−ODblank)×100.

HIV-1IIIB = experiment: Cytopathic effect (CPE) inhibition assay on HIV-1 infected C8166 cells
Method: To 100 μl of a culture medium containing corresponding concentration of concentricolide A from example 1 were added C8166 cells (4×10^5/ml) and HIV-1IIIB at a multiplicity of infection (M.O.I) of 0.06. The final volume was 200 μl. AZT was used as positive drug control. The plates were incubated in a humidified incubator at 37° C. and 5% CO2. After 3 days of culture, the cytopathic effect was measured by counting the number of syncytia in each well under an inverted microscope. EC50 (50% Effective Concentration) was the compound concentration inhibiting 50% of syncytia formation. The cytopathic effect (CPE) inhibition %=(1-number of syncytiaexp/number of syncytiacontrol)×100.

[2] = system: binding and fusion between HIV-1 and cells; experiment: microbe, parasite or virus in culture; settings: C8166 + HIV-1 chronically infected H9 cells, 24 h, syncytia formation
From the text: When HIV infected cells were co-cultured with normal T lymphocyte cells, the exterior envelope glycoprotein gp120 expressed on infected cells was bound to the cellular CD4 receptor of the uninfected CD4^+ cells, following fusion of cells and formation of syncytia. Compounds target to this site would inhibit the syncytia formation. Thus, this method could be used to detect whether the compounds have effect on binding and fusion between virus and host cell. Concentricolide A in example 1 was diluted by five fold on 96-well microtiter plate, 3 repeated wells in each gradient, 100 μl per well. Negative control well free of compounds and T-20 positive control well were set up. Then, 50 μl of C8166 cells at logarithmic growth period (6×10^5/ml) and 50 μl of HIV-1 chronically infected H9 cells (2×10^5/ml) were added in each well. The plate was cultured in a humidified incubator at 37° C. and 5% CO2 for 24 h, and the syncytial formation was observed under microscope to deduce whether Concentricolide A blocks the fusion process of virus and cell .

C8166 cells = experiment: Cytotoxicity on C8166 cells (MTT colorimetric assay); settings: 72 h
Method: as §1

EC50 (HIV-1IIIB; Human immunodeficiency virus 1, 72 h, C8166 cells, HIV-1IIIB M.O.I. 0.06, 3 days, syncytia count): 0.31 µg/mL (≈ 1.53 µM)
EC50 ([2]; Human immunodeficiency virus 1, read-out: EC50, blockage of binding and fusion between HIV-1 and cells): 0.83 µg/mL
Compound: CC[C@@H]1OC(=O)c2c1ccc1ccoc21 [concentricolide A]
CC50 at 72 h [1]: 76.7 µg/mL (≈ 379 µM)
selected index (S.I.) (HIV-1IIIB; against HIV-1 in vitro): 222

Compound: enfuvirtide
EC50, blockage of fusion of HIV-1 infected cells ([2]; positive control): 0.00602 µg/mL

EC50, inhibition of cytopathic effect (CPE) of HIV-1 (HIV-1IIIB; C8166 cells, HIV-1IIIB M.O.I. 0.06, 3 days, syncytia count): 0.092 µg/mL
Compound: Cc1cn([C@H]2C[C@H](N=[N+]=[N-])[C@@H](CO)O2)c(=O)[nH]c1=O [AZT, 3P-azido-3P-deoxythymidine, reference compound]
CC50 (50% cytotoxic concentration) (C8166 cells): 258.88 µg/mL (≈ 969 µM)
